Source: patent US20240116952A1, “KRAS INHIBITOR AND PHARMACEUTICAL USES THEREOF” (RISEN (SUZHOU) PHARMA TECH CO., LTD., priority 2022, published 2024)
“And” between values parts separate entries of the source, which are not always exact repeats. Equal values may be shown once. Read-outs that look alike come from different tables or passages of the source.

What was measured:
AsPC-1 cells = assay: Tumor growth inhibition in mouse AsPC-1 CDX model, compounds given parenterally (IP/IV); type: in vivo; conditions: for TGI (%): 27 days; for tumor growth inhibition compared to vehicle control: FIG. 6
Method: (§1) Balb/C nude mice, aged 6-8 weeks, were inoculated subcutaneously with 5×10^6 AsPC-1 pancreatic cancer cells, in 0.1 ml PBS. Eleven days post-inoculation, tumor bearing animals were randomized into Vehicle (four mice), Compound A1 (four mice) and Compound 1 (five mice), followed by oral dosing twice daily at 100 mg/kg for Compound A1 and 126 mg/kg for Compound 1 (Table 6). Tumor volume was measured every three days using a caliper, and tumor size was calculated using the formula TV=length×width^2×0.5. Tumor growth inhibition (TGI) was calculated using the given formula TGI=[1−(Vtx_t−Vtx_0)/(Vct_t−Vct_0)]×100%, where Vtx_t means tumor volume in treatment group measured at time point t, Vtx_0 means tumor volume of treatment group measured at time point 0, Vct_t means tumor volume of vehicle group measured at time point t, and Vct_0 means tumor volume of vehicle group measured at time point 0.
Balb/C nude mice bearing tumors derived from AsPC-1 cells as described previously, were grouped into Vehicle intraperitoneal (IP) (five mice), Compound A1 IP (five mice), Compound A1 intravenous (IV) (three mice), Compound 52 IP (five mice) and Compound 52 IV injections (six mice). All compounds were administered once daily at equal molarity (Compound A1, 6 mg/kg) for 27 days. Tumor volume was measured and calculated as described previously.

[1] = system: GP2D colonrectal cancer cells; type: in vivo; conditions: for TGI (%): 21 days
Method: After Balb/C nude mice (aged 6-8 weeks) were inoculated subcutaneously with 5×10^6 GP2D colonrectal cancer cells, in 0.1 ml PBS, they were grouped 11 days post-inoculation and treated with intraperitoneal injections of the given compounds for 21 days. Note that Compound 52 at 40.3 mg/kg and Compound 53 at 43 mg/kg are molar equivalent to 18 mg/kg of Compound A1. Tumor volume and TGI were measured and calculated as described before (Table 8).
Balb/C nude mice, aged 6-8 weeks, were inoculated subcutaneously with 5×10^6 GP2D colonrectal cancer cells, in 0.1 ml PBS. Eleven days post the inoculation, tumor bearing animals were randomly grouped based on given compounds and vehicle. Compound A1, as positive control, was IP administered at 18 mg/kg qd for 21 days. Compound 52 at 40.3 mg/kg (molar equivalent to 18 mg/kg of Compound A1) was IV administered q3d, and subsequently switched to 27 mg/kg for 21 days. Compound 53 at 43 mg/kg (molar equivalent to 18 mg/kg of Compound A1) was either IV or IP dosed q3d for 21 days (Table 8).

[2] = system: AsPC-1 pancreatic cancer cells; assay: Efficacy study in mouse AsPC-1 CDX model, compounds given orally; type: in vivo, Balb/C nude mice; conditions: BID; for effect on mouse body weight: given orally; for TGI (%): oral, Compound A1 100 mg/kg for 12 days, Compound 1 126 mg/kg (molar equivalent) for 16 days
Method: as §1

[3] = Mouse PK study: blood AUC of compound A1 after oral or intravenous administration; type: in vivo; conditions: ICR mice, equimolar dose
Method: A total 126 ICR mice (male, 30-34 g) were randomly divided into 42 groups with 3 animals/group (oral or intravenous administration). Blood samples were collected at 0.167, 0.5, 1, 2, 4, 6, 8, and 24 hours post-dose for oral group and 0.083, 0.25, 0.5, 1, 2, 4, 6, and 8 hours post-dose for intravenous group. The test compounds were dissolved into vehicle solutions (5% DMSO+5% Solutol+90% 20% SBE-β-CD solvents).
Animals were administered with compound A1 or exemplary test compounds by intravenous bolus administration at 3 mg/kg (equimolar dose to compound A1) and oral administration at 10 mg/kg (equimolar dose to compound A1) after fasted 12 hours, respectively. Post-dose blood samples were collected at preset time point (50 μL/animal/time point), and 20 μL blood was accurately separated into 200 μL eppendorf (EP) tube containing acetonitrile and internal standard. The supernatant was prepared by centrifuging the blood samples at approximately 4° C., 12000 rpm for 5 minutes. All samples were then quickly frozen over dry ice and kept at −60° C. or lower until analysis. The supernatant was analyzed by LC-MS/MS to detect the concentration of test compounds and metabolites.

[4] = IP, qd, Compound A1 6 mg/kg, Compound 52 13.44 mg/kg (molar equivalent)
[5] = IP, qd, Compound A1 18 mg/kg, Compound 52 40.3 mg/kg (molar equivalent)

| SMILES | TGI (%) (AsPC-1 cells; [4]) | tumor growth inhibition compared to vehicle control (AsPC-1 cells; intraperitoneal administration) | TGI (%) [1, 5] [%] | effect on mouse body weight [2] | TGI (%) [2] | also measured |
| --- | --- | --- | --- | --- | --- | --- |
| C#Cc1c(F)ccc2cc(OC(=O)OC(COC(=O)CCCCCCCC)COC(=O)CCCCCCCC)cc(-c3ncc4c(N5CC6CCC(C5)N6)nc(OC[C@@]56CCCN5C[C@H](F)C6)nc4c3F)c12 [Compound 52] | 36.12 | significant tumor growth inhibition | 87.1 |  |  | TGI (%) (AsPC-1 cells; IV, qd, Compound 52 13.44 mg/kg (molar equivalent to 6 mg/kg A1)): 47.22%; tumor growth inhibition compared to vehicle control (AsPC-1 cells; intravenous injection): significant tumor growth inhibition; body weight of mice ([1]; IV 27 mg/kg once every 3 days): remained normal; TGI (%) ([1]; IV, q3d, 27 mg/kg (molar equivalent to 12 mg/kg A1)): 80.0%; death of recipient animals ([1]; intravenously dosed at 40.3 mg/kg (molar equivalent to 18 mg/kg A1)): 50%; growth inhibition of tumors harboring the KRAS^G12D mutation ([1]; parenterally administered with the dosages of Table 8): significant growth inhibition |
| C#Cc1c(F)ccc2cc(O)cc(-c3ncc4c(N5CC6CCC(C5)N6)nc(OC[C@@]56CCCN5C[C@H](F)C6)nc4c3F)c12 [Compound A1, reference compound] | 37.27 | significant tumor growth inhibition | 85.0 | Neither Compound 1 nor A1 adversely affected mouse body weight | 9.07% | animal death observed (footnote D in TGI column) (AsPC-1 cells; IV, qd, Compound A1 6 mg/kg, 3 mice): caused the death of all mice within 24 hours |
| C#Cc1c(F)ccc2cc(O)cc(-c3ncc4c(N5CC6CCC(C5)N6C(=O)OC(C)OC(=O)CCC)nc(OC[C@@]56CCCN5C[C@H](F)C6)nc4c3F)c12 (stereo partly drawn) [Compound 1] |  |  |  | Neither Compound 1 nor A1 adversely affected mouse body weight | 53.5% and 53.95% |  |
| C#Cc1c(F)ccc2cc(O)cc(-c3ncc4c(N5CC6CCC(C5)N6C(=O)OC(C)OC(=O)CC(C)C)nc(OC[C@@]56CCCN5C[C@H](F)C6)nc4c3F)c12 (stereo partly drawn) [Compound 10] |  |  |  |  |  | AUC of A1 increased compared to direct oral administration of A1 [3]: more than 8.5 times |
